Experimental data: patent publication US20060211676A1, “Crystalline anhydrous cefdinir and crystalline cefdinir hydrates” (priority 2004, published 2006)

Assay: Dynamic Moisture Sorption/Desorption Gravimetric (DMSG) analysis
Assay type: physicochemical
Conditions: relative humidity from 50% to 90%
Method: Dynamic Moisture Sorption/Desorption Gravimetric (DMSG) analysis was performed for the cefdinir lower hydrates. A vacuum moisture balance (MB 300G, VTI Corporation) was used to study the moisture sorption and desoprtion. Samples were dried at 50° C. under vacuum to constant weight. Relative humidity was increased to 90% in 10% increments. If the sample weight remained unchanged (i.e. changed by less than about 3 mg/15 min), the moisture content was recorded. The balance was calibrated before the experiment and the accuracy of the relative humidity measurement was verified with polyvinylpyrrolidone K90. […] Sharp steps, for example with relative humidity changes from 40% to 50%, occur when the crystal undergoes a phase change (i.e. a crystalline structure change). […] Increases in the relative humidity from 10% to almost 40%, results in the formation of crystalline iso-structural hydrates. The cefdinir iso-structural hydrates varied but maintained the same crystalline structure and PXRD patterns (FIG. 6). An increase in the relative humidity from 40% to 50% caused a crystalline structure change, and further increase of relative humidity from 50% to 90% caused cefdinir trihemihydrate (having a water content of about 14%) to form. […] The weight changes are expressed by percentage of water content and by the calculated molar content of water.

Structure (SMILES): C=CC1=C(C(=O)O)N2C(=O)[C@@H](NC(=O)/C(=N\O)c3csc(N)n3)[C@H]2SC1.C=CC1=C(C(=O)O)N2C(=O)[C@@H](NC(=O)/C(=N\O)c3csc(N)n3)[C@H]2SC1.O.O.O.O.O.O.O [cefdinir trihemihydrate, crystalline(6R-(6α,7β(Z)))-7-(((2-amino-1,3-thiazol-4-yl)(hydroxyimino)acetyl)amino)-3-ethenyl-8-oxo-5-thia-1-azabicyclo[4.2.0]oct-2-ene-2-carboxylic acid.3.5H2O]
- water content: about 14%
